We go through 21 compounds from patent US10689339B2, “Pyrrolidine derivatives” (Hoffmann-La Roche Inc., priority 2016, dated 2020).

The target in this assay is human Cat S (Homo sapiens (Human), UniProt P25774). In words: Cathepsin enzyme inhibition assay (fluorogenic peptide substrate Z-Val-Val-Arg-AMC). It counts as biochemical. As to conditions: enzyme 1 nM, substrate 20 μM, pH 6.5. On the procedure: Cathepsin Enzyme Inhibition Assay
Sequence of human Cat S (P25774 115-331): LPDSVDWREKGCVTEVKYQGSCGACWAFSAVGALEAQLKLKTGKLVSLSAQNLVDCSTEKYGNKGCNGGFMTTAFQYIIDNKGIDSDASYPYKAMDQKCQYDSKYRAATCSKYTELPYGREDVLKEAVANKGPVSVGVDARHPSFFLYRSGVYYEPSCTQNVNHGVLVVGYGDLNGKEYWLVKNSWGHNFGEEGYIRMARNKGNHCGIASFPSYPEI
Enzyme activity is measured by observing the increase in fluorescence intensity caused by cleavage of a peptide substrate containing a fluorophore whose emission is quenched in the intact peptide.
Assay buffer: 100 mM potassium phosphate pH 6.5, EDTA-Na 5 mM, Triton X-100 0.001%, DTT 5 mM.
Enzymes (all at 1 nM): human and mouse Cathepsin S, Cat K, Cat B, Cat L.
Substrate (20 μM): Z-Val-Val-Arg-AMC, except for Cat K which uses Z-Leu-Arg-AMC (both from Bachem).
AMC=7-Amino-4-Methyl-Coumarin.
Excitation 360 nm, Emission 465 nm.
Enzyme is added to the substance dilutions in 96-well microtitre plates and the reaction is started with substrate. […] IC50 are calculated by standard methods.
Inhibition of human Cat S, mouse Cat S, human Cat K, human Cat B, human Cat L and mouse Cat L have been measured separately.
The compound `Cc1cc(-c2ccccc2OC(F)(F)F)ccc1S(=O)(=O)[C@@H]1C[C@@H](C(=O)NC2(C#N)CC2)N(C(=O)C2(C(F)(F)F)CC2)C1` [Example 22, (2S,4R)—N-(1-cyanocyclopropyl)-4-(3-methyl-2′-(trifluoromethoxy)biphenyl-4-ylsulfonyl)-1-(1-(trifluoromethyl)cyclopropanecarbonyl)pyrrolidine-2-carboxamide] displayed an IC50 of 1.14 nM.

`Cc1cc(C(F)(F)F)nn1-c1ccc(S(=O)(=O)[C@@H]2C[C@@H](C(=O)NC3(C#N)CC3)N(C(=O)C3(C(F)(F)F)CC3)C2)c(C(F)(F)F)c1` [Example 23, (2S,4R)-4-[4-(5-Methyl-3-trifluoromethyl-pyrazol-1-yl)-2-trifluoromethyl-benzenesulfonyl]-1-(1-trifluoromethyl-cyclopropanecarbonyl)-pyrrolidine-2-carboxylic acid (1-cyano-cyclopropyl)-amide] gave an IC50 of 1.12 nM.

In turn, `Cc1ncn(-c2ccc(S(=O)(=O)[C@@H]3C[C@@H](C(=O)NC4(C#N)CC4)N(C(=O)C4(C(F)(F)F)CC4)C3)c(C(F)(F)F)c2)n1` [Example 24, (2S,4R)-4-[4-(3-Methyl-[1,2,4]triazol-1-yl)-2-trifluoromethyl-benzenesulfonyl]-1-(1-trifluoromethyl-cyclopropanecarbonyl)-pyrrolidine-2-carboxylic acid (1-cyano-cyclopropyl)-amide] displayed an IC50 of 0.772 nM.

Regarding `Cc1nncn1-c1ccc(S(=O)(=O)[C@@H]2C[C@@H](C(=O)NC3(C#N)CC3)N(C(=O)C3(C(F)(F)F)CC3)C2)c(C(F)(F)F)c1` [Example 25, (2S,4R)-4-[4-(3-Methyl-[1,2,4]triazol-4-yl)-2-trifluoromethyl-benzenesulfonyl]-1-(1-trifluoromethyl-cyclopropanecarbonyl)-pyrrolidine-2-carboxylic acid (1-cyano-cyclopropyl)-amide], the IC50 is 3.27 nM.

`Cc1nc(C)n(-c2ccc(S(=O)(=O)[C@@H]3C[C@@H](C(=O)NC4(C#N)CC4)N(C(=O)C4(C(F)(F)F)CC4)C3)c(C(F)(F)F)c2)n1` [Example 27, (2S,4R)-4-[4-(3,5-Dimethyl-[1,2,4]triazol-1-yl)-2-trifluoromethyl-benzenesulfonyl]-1-(1-trifluoromethyl-cyclopropanecarbonyl)-pyrrolidine-2-carboxylic acid (1-cyano-cyclopropyl)-amide] yielded an IC50 of 0.558 nM. In the case of `Cn1nc(C(F)(F)F)cc1-c1ccc(S(=O)(=O)[C@@H]2C[C@@H](C(=O)NC3(C#N)CC3)N(C(=O)C3(C(F)(F)F)CC3)C2)cc1` [Example 28, (2S,4R)—N-(1-cyanocyclopropyl)-4-(4-(1-methyl-3-(trifluoromethyl)-1H-pyrazol-5-yl)phenylsulfonyl)-1-(1-(trifluoromethyl)cyclopropanecarbonyl)pyrrolidine-2-carboxamide] it was 2.33 nM; in that of `Cc1cc(-c2ccccc2C=O)ccc1S(=O)(=O)[C@@H]1C[C@@H](C(=O)NC2(C#N)CC2)N(C(=O)C2(C(F)(F)F)CC2)C1` [Example 29, (2S,4R)—N-(1-cyanocyclopropyl)-4-(2′-formyl-3-methylbiphenyl-4-ylsulfonyl)-1-(1-(trifluoromethyl)cyclopropanecarbonyl)pyrrolidine-2-carboxamide], 0.811 nM.

With `Cc1ncnn1-c1ccc(S(=O)(=O)[C@@H]2C[C@@H](C(=O)NC3(C#N)CC3)N(C(=O)C3(C(F)(F)F)CC3)C2)c(C(F)(F)F)c1` [Example 31, (2S,4R)—N-(1-cyanocyclopropyl)-4-(4-(5-methyl-1H-1,2,4-triazol-1-yl)-2-(trifluoromethyl)phenylsulfonyl)-1-(1-(trifluoromethyl)cyclopropanecarbonyl) pyrrolidine-2-carboxamide], inhibition was half-maximal at 0.54 nM (IC50). For `Cc1cc(-c2cc(C(F)(F)F)nn2C)ccc1S(=O)(=O)[C@@H]1C[C@@H](C(=O)NC2(C#N)CC2)N(C(=O)C2(C(F)(F)F)CC2)C1` [Example 32, (2S,4R)—N-(1-cyanocyclopropyl)-4-(2-methyl-4-(1-methyl-3-(trifluoromethyl)-1H-pyrazol-5-yl)phenylsulfonyl)-1-(1-(trifluoromethyl)cyclopropanecarbonyl) pyrrolidine-2-carboxamide] the value was 0.955 nM; for `Cc1nc(C)n(-c2ccc(S(=O)(=O)[C@@H]3C[C@@H](C(=O)NC4(C#N)CC4)N(C(=O)C4(C(F)(F)F)CC4)C3)cc2)n1` [Example 33, (2S,4R)—N-(1-cyanocyclopropyl)-4-(4-(3,5-dimethyl-1H-1,2,4-triazol-1-yl)phenylsulfonyl)-1-(1-(trifluoromethyl)cyclopropanecarbonyl)pyrrolidine-2-carboxamide], 1.57 nM; for `N#CC1(NC(=O)[C@@H]2C[C@@H](S(=O)(=O)c3ccc(-n4ccnn4)cc3)CN2C(=O)C2(C(F)(F)F)CC2)CC1` [Example 34, (2S,4R)-4-(4-(1H-1,2,3-triazol-1-yl)phenylsulfonyl)-N-(1-cyanocyclopropyl)-1-(1-(trifluoromethyl)cyclopropanecarbonyl)pyrrolidine-2-carboxamide], 1.06 nM. For `N#CC1(NC(=O)[C@@H]2C[C@@H](S(=O)(=O)c3ccc(-n4ccc(C(F)(F)F)n4)cc3)CN2C(=O)C2(C(F)(F)F)CC2)CC1` [Example 35, (2S,4R)—N-(1-cyanocyclopropyl)-4-(4-(3-(trifluoromethyl)-1H-pyrazol-1-yl)phenylsulfonyl)-1-(1-(trifluoromethyl)cyclopropanecarbonyl)pyrrolidine-2-carboxamide] the value was 1.02 nM; for `Cc1cc(C(F)(F)F)nn1-c1ccc(S(=O)(=O)[C@@H]2C[C@@H](C(=O)NC3(C#N)CC3)N(C(=O)C3(C(F)(F)F)CC3)C2)cc1` [Example 36, (2S,4R)—N-(1-cyanocyclopropyl)-4-(4-(5-methyl-3-(trifluoromethyl)-1H-pyrazol-1-yl)phenylsulfonyl)-1-(1-(trifluoromethyl)cyclopropanecarbonyl)pyrrolidine-2-carboxamide], 2.6 nM; for `N#CC1(NC(=O)[C@@H]2C[C@@H](S(=O)(=O)c3ccc(-c4ccccc4C=O)cc3)CN2C(=O)C2(C(F)(F)F)CC2)CC1` [Example 37, (2S,4R)—N-(1-cyanocyclopropyl)-4-(2′-formylbiphenyl-4-ylsulfonyl)-1-(1-(trifluoromethyl)cyclopropanecarbonyl)pyrrolidine-2-carboxamide], 1.89 nM. For `CCOc1ccccc1-c1ccc(S(=O)(=O)[C@@H]2C[C@@H](C(=O)NC3(C#N)CC3)N(C(=O)C3(C(F)(F)F)CC3)C2)cc1` [Example 38, (2S,4R)—N-(1-cyanocyclopropyl)-4-(2′-ethoxybiphenyl-4-ylsulfonyl)-1-(1-(trifluoromethyl)cyclopropanecarbonyl)pyrrolidine-2-carboxamide] the value was 3.21 nM; for `N#CC1(NC(=O)[C@@H]2C[C@@H](S(=O)(=O)c3ccc(-c4cnc(N)nc4)cc3)CN2C(=O)C2(C(F)(F)F)CC2)CC1` [Example 39, (2S,4R)-4-(4-(2-aminopyrimidin-5-yl)phenylsulfonyl)-N-(1-cyanocyclopropyl)-1-(1-(trifluoromethyl)cyclopropanecarbonyl)pyrrolidine-2-carboxamide], 0.483 nM; for `CCOc1ccccc1-c1ccc(S(=O)(=O)[C@@H]2C[C@@H](C(=O)NC3(C#N)CC3)N(C(=O)C3(C(F)(F)F)CC3)C2)c(C)c1` [Example 40, (2S,4R)—N-(1-cyanocyclopropyl)-4-(2′-ethoxy-3-methylbiphenyl-4-ylsulfonyl)-1-(1-(trifluoromethyl)cyclopropanecarbonyl)pyrrolidine-2-carboxamide], 1.21 nM. `Cc1cc(-c2ccccc2C#N)ccc1S(=O)(=O)[C@@H]1C[C@@H](C(=O)NC2(C#N)CC2)N(C(=O)C2(C(F)(F)F)CC2)C1` [Example 41, (2S,4R)-4-(2′-cyano-3-methylbiphenyl-4-ylsulfonyl)-N-(1-cyanocyclopropyl)-1-(1-(trifluoromethyl)cyclopropanecarbonyl)pyrrolidine-2-carboxamide] returned a concentration for half-maximal inhibition (IC50) of 0.86 nM. Turning to `CCOc1cc(F)c(F)cc1-c1ccc(S(=O)(=O)[C@@H]2C[C@@H](C(=O)NC3(C#N)CC3)N(C(=O)C3(C(F)(F)F)CC3)C2)c(C)c1` [Example 42, (2S,4R)—N-(1-cyanocyclopropyl)-4-(2′-ethoxy-4′,5′-difluoro-3-methylbiphenyl-4-ylsulfonyl)-1-(1-(trifluoromethyl)cyclopropanecarbonyl)pyrrolidine-2-carboxamide], it took 1.46 nM to reach half-maximal inhibition (IC50). For `N#CC1(NC(=O)[C@@H]2C[C@@H](S(=O)(=O)c3ccc(-c4ccccc4CO)cc3)CN2C(=O)C2(C(F)(F)F)CC2)CC1` [Example 43, (2S,4R)—N-(1-cyanocyclopropyl)-4-(2′-(hydroxymethyl)biphenyl-4-ylsulfonyl)-1-(1-(trifluoromethyl)cyclopropanecarbonyl)pyrrolidine-2-carboxamide], half-maximal inhibition (IC50) required 3.57 nM. In turn, `Cc1cc(-c2cnc(N)nc2)ccc1S(=O)(=O)[C@@H]1C[C@@H](C(=O)NC2(C#N)CC2)N(C(=O)C2(C(F)(F)F)CC2)C1` [Example 44, (2S,4R)-4-(4-(2-aminopyrimidin-5-yl)-2-methylphenylsulfonyl)-N-(1-cyanocyclopropyl)-1-(1-(trifluoromethyl)cyclopropanecarbonyl)pyrrolidine-2-carboxamide] yielded an IC50 of 0.51 nM.

One may read the IC50 as the concentration that gives 50% inhibition.
